This note sets out measurements from patent publication US20260199493A1 (priority 2021, published 2026).

Broadly, the IC50 is the concentration that gives 50% inhibition.

Like-named read-outs stand apart in the source and are kept apart here. Starred links: 1 amine or outer side, 2 acyl side, 3 side chain; linkers in the order of their positions; H or OH if unused. Non-standard residues stand in square brackets, D forms with d. Residues, ends and D or L forms follow the SMILES beside them. Groups on a side chain read outwards from the residue. *: point of attachment. X1 = NC(=O)[C@H](CCCCNC(=O)COCCOCCNC(=O)CCC(=O)NCCOCCOCCCCCCCl)N*; Ala(piperidin-4-yl) = O=C([C@H](CC1CCN([*:3])CC1)N[*:1])[*:2]; Phe(4-guanidino) = N=C(N)Nc1ccc(C[C@H](N)C(=O)O)cc1; 2Nal = N[C@@H](Cc1ccc2ccccc2c1)C(=O)O; Lys(Me2) = CN(C)CCCC[C@H](N)C(=O)O; hArg = N=C(N)NCCCC[C@H](N)C(=O)O; Cit = NC(=O)NCCC[C@H](N)C(=O)O; Agb = N=C(N)NCC[C@H](N)C(=O)O; Agp = N=C(N)NC[C@H](N)C(=O)O; PEG4 = NCCOCCOCCOCCOCCC(=O)O

Assay [1] has as its system HaloTag-ActA fusion protein. As to the kind of experiment: Chloroalkane penetration assay (HaloTag). In kind it is cell-based. The note with it: HEK293-HaloTag cells, chloroalkane-tagged peptide, 24 h with FBS, then 5 μM TMR-ct. From the text:
Assay design. HEK293 cells were produced that stably express a HaloTag-ActA fusion protein (“HEK293-HaloTag”) which ensures fusion protein localization to the outer mitochondrial membrane with exposure to the cytosol. The HaloTag protein rapidly reacts covalently with short chloroalkane-containing compounds, occupying the active site and preventing further reactions. The chloroalkane penetration assay utilizes this reactivity in a pulse-chase assay where cells are first treated with cCPPs-chloroalkane of interest, followed by incubation with cell-permeable fluorescent dye tetramethylrhodamine-chloroalkane (“TMR-ct”). If cCPPs have gained access to the cytosol, they will react with HaloTag and prevent it from reacting with TMR-ct. The relative cell-penetrating efficiency of compounds can therefore be determined by their ability to reduce cellular TMR fluorescence after a washout period with this value expressed as IC50.
Cell penetrating peptides. Cell penetrating peptides having the sequences indicated in Table 13 (below) were functionalized on the lysine residue with a chloroalkane tag of the sequence N^1-(2-(2-((5-chlorohexyl)oxy)ethoxy)ethyl-N^4-(2-(2-(2-oxoethoxy)ethoxy)ethyl)succinamide (referred to as “chloroalkane” in Table 13), purified, and prepared as stock solutions in DMSO with concentration determined by A280 or weight as applicable.
Determination of cell-penetrating efficiency. Compounds to be evaluated were prepared as stock solutions in DMSO and diluted in PBS before addition to HEK293-HaloTag ells as a serial dilution from 30 μM to 0.5 nM. Cells were incubated with the compounds at a given concentration for 24 h in the presence of FBS at 37° C. After incubation, cells were washed thoroughly with PBS and to the cells was added fresh, serum-free media containing 5 μM TMR-ct and incubated for 30 min. After incubation, the cells were washed and incubated in fresh media to wash-out any unreacted TMR-ct. Cells were then imaged and quantified for cellular fluorescence using high-content imaging. Values are normalized to vehicle-treated cells and an IC50 calculated using a 4-parameter logarithmic fit in GraphPad PRISM v.8.

Assay [2] concerns IRF5 protein.
Assay [3] deals with exon 23 of DMD.
The test system of assay [4] is exon 44 of human dystrophin mRNA. Kind of assay: Exon 44 skipping by RT-PCR in hDMD mice. The note with it: hDMD mice, 5 days. It is filed as in vivo. As for the experimental part: The hemizygous mice were further genotyped at Transnetyx. All groups were dosed 5 mL/kg per animal by intravenous (iv) injection and sacrificed after 5 days post injection. All animals were euthanized by CO2 asphyxiation followed by terminal blood collection via cardiac puncture. Maximum obtainable volume of whole blood was collected into lithium heparin tubes and processed to plasma. A portion of plasma was analyzed for clinical chemistries by the Testing Facility (IDEXX) and the rest stored frozen at nominally −70° C. […] Animals were age matched and assigned into eight (8) treatment groups according to Table 15. […] All animals survived until their scheduled euthanasia time. Tissues were collected per protocol. The amount of AC and a cCPP-AC in various tissue samples was quantified by LC-MS. Exon skipping in different tissues were analyzed by RT-PCR and the quantification of exon 44 correction.
Exon Skipping Analysis by RT-PCR: hDMD mice and NHP express full-length human dystrophin mRNA. The delivery of AC can alter the splicing and result in a shortened dystrophin mRNA after exon 44 skipping. The tissues were homogenized using 1 mL of RLT lysis buffer (Qiagen, Cat #79216). The detection of splicing correction process was measured by RT-PCR where extracted RNAs from tissues were first reverse-transcribed into cDNA and further analyzed by one step RT-PCR using the following primer set: forward primer 5′-[…]-3′ (SEQ ID NO: 262) and reverse primer 5′-[…]-3′ (SEQ ID NO: 263). […] Quantification of the relative intensity of the bands corresponding to skipped and unskipped transcripts were performed to assess AC-induced exon-44-skipping efficacy. The degree (percentage) of splicing correction detected by RT-PCR was calculated using the following equation: % correction=(intensity of 493 bp fragment band)/(intensity of 493 bp fragment band+intensity of 641 bp fragment band).

[5] abbreviates: MDX mice, single IV 20 mg/kg, day 5.

With `N=C(N)NCCC[C@H]1NC(=O)[C@H](CCCNC(N)=O)NC(=O)[C@@H](CCCNC(=N)N)NC(=O)[C@H](CCCNC(N)=O)NC(=O)[C@H](Cc2ccc3ccccc3c2)NC(=O)[C@@H](Cc2ccccc2)NC(=O)[C@H](Cc2ccccc2)NC(=O)[C@H](CCC(=O)NCCOCCOCCOCCOCCC(=O)N[C@@H](CCCCNC(=O)COCCOCCNC(=O)CCC(=O)NCCOCCOCCCCCCCl)C(N)=O)NC1=O` [Compound 1a, cyclo(FfΦ-Cit-r-Cit-rQ)-PEG4-K-NH2] (cyclo([2Nal][Cit][dR][Cit][dR]E([PEG4-X1])F[dF])), the IC50 in assay [1] was 849 nM.

Consider `N=C(N)NCCC[C@H]1NC(=O)[C@H](CC2CCNCC2)NC(=O)[C@@H](CCCNC(=N)N)NC(=O)[C@H](CC2CCNCC2)NC(=O)[C@H](Cc2ccc3ccccc3c2)NC(=O)[C@@H](Cc2ccccc2)NC(=O)[C@H](Cc2ccccc2)NC(=O)[C@H](CCC(=O)NCCOCCOCCOCCOCCC(=O)N[C@@H](CCCCNC(=O)COCCOCCNC(=O)CCC(=O)NCCOCCOCCCCCCCl)C(N)=O)NC1=O` [Compound 2a, cyclo(FfΦ-Pia-r-Pia-rQ)-PEG4-K-NH2] (cyclo([2Nal][Ala(piperidin-4-yl)][dR][Ala(piperidin-4-yl)][dR]E([PEG4-X1])F[dF])), for which the IC50 in assay [1] was determined as 881 nM.

With `CN(C)CCCC[C@@H]1NC(=O)[C@H](Cc2ccc3ccccc3c2)NC(=O)[C@@H](Cc2ccccc2)NC(=O)[C@H](Cc2ccccc2)NC(=O)[C@H](CCC(=O)NCCOCCOCCOCCOCCC(=O)N[C@@H](CCCCNC(=O)COCCOCCNC(=O)CCC(=O)NCCOCCOCCCCCCCl)C(N)=O)NC(=O)[C@@H](CCCNC(=N)N)NC(=O)[C@H](CCCCN(C)C)NC(=O)[C@@H](CCCNC(=N)N)NC1=O` [Compound 3a, cyclo(FfΦ-Dml-r-Dml-rQ)-PEG4-K-NH2] (cyclo(F[dF][2Nal][Lys(Me2)][dR][Lys(Me2)][dR]E([PEG4-X1]))), the IC50 in assay [1] came out at 932 nM.

On to `N=C(N)NCCC[C@H]1NC(=O)[C@H](CNC(=N)N)NC(=O)[C@@H](CCCNC(=N)N)NC(=O)[C@H](CNC(=N)N)NC(=O)[C@H](Cc2ccc3ccccc3c2)NC(=O)[C@@H](Cc2ccccc2)NC(=O)[C@H](Cc2ccccc2)NC(=O)[C@H](CCC(=O)NCCOCCOCCOCCOCCC(=O)N[C@@H](CCCCNC(=O)COCCOCCNC(=O)CCC(=O)NCCOCCOCCCCCCCl)C(N)=O)NC1=O` [Compound A, cyclo(FfΦ-Agp-r-Agp-rQ)-PEG4-K-NH2] (cyclo([2Nal][Agp][dR][Agp][dR]E([PEG4-X1])F[dF])), for which it took 626 nM to reach half-maximal inhibition in assay [1] (IC50).

`N=C(N)NCCC[C@H]1NC(=O)[C@H](CCNC(=N)N)NC(=O)[C@@H](CCCNC(=N)N)NC(=O)[C@H](CCNC(=N)N)NC(=O)[C@H](Cc2ccc3ccccc3c2)NC(=O)[C@@H](Cc2ccccc2)NC(=O)[C@H](Cc2ccccc2)NC(=O)[C@H](CCC(=O)NCCOCCOCCOCCOCCC(=O)N[C@@H](CCCCNC(=O)COCCOCCNC(=O)CCC(=O)NCCOCCOCCCCCCCl)C(N)=O)NC1=O` [Compound B, cyclo(FfΦ-Agb-r-Agb-rQ)-PEG4-K-NH2] (cyclo([2Nal][Agb][dR][Agb][dR]E([PEG4-X1])F[dF])): the IC50 in assay [1] came to 695 nM. The IC50 values of the last two compounds are within 1.5-fold of each other.

The compound `N=C(N)NCCCC[C@@H]1NC(=O)[C@H](Cc2ccc3ccccc3c2)NC(=O)[C@@H](Cc2ccccc2)NC(=O)[C@H](Cc2ccccc2)NC(=O)[C@H](CCC(=O)NCCOCCOCCOCCOCCC(=O)N[C@@H](CCCCNC(=O)COCCOCCNC(=O)CCC(=O)NCCOCCOCCCCCCCl)C(N)=O)NC(=O)[C@@H](CCCNC(=N)N)NC(=O)[C@H](CCCCNC(=N)N)NC(=O)[C@@H](CCCNC(=N)N)NC1=O` [Compound C, cyclo(FfΦ-hR-r-hR-rQ)-PEG4-K-NH2] (cyclo([2Nal][hArg][dR][hArg][dR]E([PEG4-X1])F[dF])) yielded a concentration for half-maximal inhibition (IC50) in assay [1] of 786 nM.

Take `N=C(N)NCCC[C@H]1NC(=O)[C@H](Cc2ccc(NC(=N)N)cc2)NC(=O)[C@@H](CCCNC(=N)N)NC(=O)[C@H](Cc2ccc(NC(=N)N)cc2)NC(=O)[C@H](Cc2ccc3ccccc3c2)NC(=O)[C@@H](Cc2ccccc2)NC(=O)[C@H](Cc2ccccc2)NC(=O)[C@H](CCC(=O)NCCOCCOCCOCCOCCC(=O)N[C@@H](CCCCNC(=O)COCCOCCNC(=O)CCC(=O)NCCOCCOCCCCCCCl)C(N)=O)NC1=O` [Compound D, cyclo(FfΦ-4gp-r-4gp-rQ)-PEG4-K-NH2] (cyclo([2Nal][Phe(4-guanidino)][dR][Phe(4-guanidino)][dR]E([PEG4-X1])F[dF])): the IC50 in assay [1] was found to be 695 nM.

Turning to `CCOCc1nc2c(N)nc3ccccc3c2n1CC(C)(C)O` [Compound R848, reference compound], the IRF5 protein expression result in assay [2] is “significantly increases IRF5 Protein expression”.

As to `N=C(N)NCCC[C@@H]1NC(=O)[C@H](Cc2ccc3ccccc3c2)NC(=O)[C@@H](Cc2ccccc2)NC(=O)[C@H](Cc2ccccc2)NC(=O)[C@H](CCC(=O)NCCOCCOCCOCCOCCC(=O)N[C@@H](CCCCNC(=O)COCCOCCNC(=O)CCC(=O)NCCOCCOCCCCCCCl)C(N)=O)NC(=O)[C@@H](CCCNC(=N)N)NC(=O)[C@H](CCCNC(=N)N)NC(=O)[C@@H](CCCNC(=N)N)NC1=O` [EEV12, cyclo(FfΦRrRrQ)-PEG4-K(chloroalkane)-NH2, reference compound] (cyclo([2Nal]R[dR]R[dR]E([PEG4-X1])F[dF])), half-maximal inhibition in assay [1] (IC50) required 792 nM.

With “Ac-KBK-AEEA-K(cyclo[FGFGRGRQ])-AEEA-K(N3)-NH2 [EEV-PMO-MDX-5]”, the “exon skipping in heart vs diaphragm, tibialis anterior, triceps” value (from here on “exon skipping in heart vs diaphragm”) in assay [3] (mouse, in vivo, iv, 20 mg/kg) is “a lower level of exon skipping in heart tissue”.

Consider “Ac-PKKKRKV-AEEA-K(cyclo[FGFGRGRQ])-AEEA-K(N3)-NH2 [EEV-PMO-MDX-4]”, for which the “exon skipping in heart vs diaphragm” value in assay [3] (setting [5]) is “a lower level of exon skipping in heart tissue”.

Consider “Ac-PKKKRKV-AEEA-K(cyclo[FGFGRGRQ])-PEG12-OH [EEV-PMO-IRF5-1]”, for which the “IRF-5 protein expression compared to cells stimulated with R848” value in assay [2] (RAW 264.7 cells, all tested concentrations) is “significant reduction in IRF-5 protein expression”. For the same compound, the IRF5 protein levels entry in assay [2] (mouse macrophage cells, 30 μM, 10 μM and 3 μM) is reported as “statistically significant reduction of IRF5 protein levels”.

Regarding “Ac-PKKKRKV-AEEA-K(cyclo[FfFGRGRQ])-AEEA-K(N3)-NH2 [EEV-PMO-MDX-7]”, the “exon skipping in heart vs diaphragm” value in assay [3] (setting [5]) is “a lower level of exon skipping in heart tissue”.

“Ac-PKKKRKV-AEEA-K(cyclo[GfFGrGrQ])-PEG12-OH [EEV-PMO-DMD44-2]”: the exon skipping in assay [4] (10 mpk IV, Diaphragm) is reported as 14%; in assay [4] (10 mpk IV, TiA), 22%; in assay [4] (10 mpk IV, Triceps), 17%; in assay [4] (10 mpk IV, heart), 0%; in assay [4] (20 mpk IV, Diaphragm), 35%; in assay [4] (20 mpk IV, TiA) it was 58%. Besides, the exon skipping in assay [4] (20 mpk IV, Triceps) worked out at 44; in assay [4] (20 mpk IV, heart), 2%; in assay [4] (40 mpk IV, Diaphragm), 83%; in assay [4] (40 mpk IV, TiA), 95%; in assay [4] (40 mpk IV, Triceps), 92%; in assay [4] (40 mpk IV, heart), 17%. Besides, the exon skipping turned out to be 99% in assay [4] (80 mpk IV, Diaphragm); 99% in assay [4] (80 mpk IV, TiA); 98% in assay [4] (80 mpk IV, Triceps); 79% in assay [4] (80 mpk IV, heart). Besides, in assay [4] (IV), the “minimum efficacious dose in the heart” value is 40 mpk.
